In brackets after ≈: the same amount, converted by molar mass. Where two headings read alike, the source gives them in different places. Positions of bridges follow the written chain, without caps; N, C: chain ends. Non-standard residues stand in square brackets, D forms with d. Residues, ends and D or L forms follow the SMILES beside them. *: point of attachment. Cholyl = C[C@H](CCC(=O)*)[C@H]1CC[C@H]2[C@@H]3[C@H](O)C[C@@H]4C[C@H](O)CC[C@]4(C)[C@H]3C[C@H](O)[C@]12C; Decanoyl(3R-OH) = CCCCCCC[C@@H](O)CC(=O)*; X1 = CCCCCCCN1CCC(C(=O)*)CC1; dDab = NCC[C@@H](N)C(=O)O; Dab = NCC[C@H](N)C(=O)O; Dap = NC[C@H](N)C(=O)O
What was measured:
[1] = system: S. aureus ATCC 25923, MSSA; settings: ATCC 25923
Method in brief: (§1)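 Mid-log cultures grown in Mueller Hinton broth at 37° C were tested by 2-fold broth microdilution at 5×10^5 CFU/mL final. Compounds were dissolved in water and tested over a final range of 32 to 0.015 μg/mL.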

[2] = system: K. pneumoniae GN_102 PmxR; settings: GN 102 PmxR
Method in brief: as §1

A. baumannii ATCC 19606 = settings: ATCC 19606
Method in brief: as §1

[3] = system: P. aeruginosa GN_043, PmxR
Method in brief: as §1

[4] = system: K. pneumoniae ATCC 700603, MDR; settings: ATCC 700603
Method in brief: as §1

[5] = system: K. pneumoniae GN_106, PmxR; settings: GN 106, PmxR
Method in brief: as §1

[6] = system: P. aeruginosa GN_105, PmxR; settings: GN 105, PmxR
Method in brief: as §1

E. coli ATCC 25922 = settings: ATCC 25922
Method in brief: as §1

[7] = system: K. pneumoniae ATCC BAA-2146, NDM-1 pos; settings: ATCC BAA-2146
Method in brief: as §1

K. pneumoniae ATCC 13883 = settings: ATCC 13883
Method in brief: as §1

A. baumannii GN_093 PmxR = settings: GN 093 PmxR
Method in brief: as §1

P. aeruginosa ATCC 27853 = settings: ATCC 27853
Method in brief: as §1

in vitro [8] = settings: human
Method in brief: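 Fluorescence read-out (excitation 560, emission 590) after a 2 h, 37 °C incubation with 5 μM resazurin, following 24 h compound treatment of cells plated at 4000 per well. CC50 values come from fitting dose–response curves of growth inhibition.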

in vitro [9] = settings: human; remark: listed apart in the source
Method in brief: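 HK2 cells were seeded at 2000 per well in DMEM/F12 with 10% FBS and left to attach for 24 h at 37 °C, 5% CO2. They were then exposed for 24 h to 3-fold peptide dilutions starting from 600 μM solutions in quadruplicate. LDH release was read at 450 nm, and CC50 was fitted from dose-response curves.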

in vitro [10] = settings: human; remark: listed apart in the source
Experimental: Cytotoxicity of the synthesised peptides was evaluated by comparison with commercially available colistin (polymyxin E), polymyxin B (Sigma chemical Co., St. Louis, Mo., U.S.A.) and synthetic octapeptin C4 by conducting lactate dehydrogenase (LDH) assay. CC50 values calculated based on curve fitting of dose dependent inhibition of cell growth represented the cytotoxicity of the peptide. Human kidney 2 (HK2) cells were seeded as 2000 cells per well in a 384 well cell culture plate in a final volume of 20 μL in DMEM/F12 medium (Invitrogen #11330057), in which 10% of FBS was added. Cells were incubated for 24 hours at 37° C., 5% CO2 to allow cells to attach to the plates. Similar conditions were employed for HEK293 and HepG2 cytotoxicity assays.
Cytotoxicity to HEK293 and HepG2 cells was determined using the resazurin assay (McMillian, M. K.; Li, L.; Parker, J. B.; Patel, L.; Zhong, Z.; Gunnett, J. W.; Powers, W. J.; Johnson, M. D. An improved resazurin-based cytotoxicity assay for hepatic cells; Cell Biol. Toxicol. 2002, 18, 157-173; O'Brien, J.; Wilson, I.; Orton, T.; Pognan, F. Investigation of the Alamar Blue (resazurin) fluorescent dye for the assessment of mammalian cell cytotoxicity. Eur. J. Biochem. 2000, 267, 5421-5426). In brief, HEK293 and HepG2 cells were seeded at 4000 cells/well in black-wall, clear-bottom 384-well plates (Corning, Australia) and incubated for 24 h at 37° C., 5% CO2. Compounds were then added into each well. After 24 h incubation, 5 μM resazurin was added per well and incubated at 37° C. for 2 h. Fluorescence intensity was then read using a Polarstar Omega with excitation/emission 560/590. The data was then analyzed using GraphPad Prism 6 software. CC50 values were determined using GraphPad Prism 6 software (Inc. La Jolla, Calif.).

SMILES	MIC S. aureus ATCC 25923, MSSA [1] [µg/mL]	MIC K. pneumoniae GN_102 PmxR [2] [µg/mL]	MIC A. baumannii ATCC 19606 (A. baumannii ATCC 19606) [µg/mL]	MIC P. aeruginosa GN_043, PmxR ([3]; P. aeruginosa GN_043, PmxR) [µg/mL]	MIC K. pneumoniae ATCC 700603, MDR [4] [µg/mL]	MIC K. pneumoniae GN_106, PmxR [5] [µg/mL]	MIC P. aeruginosa GN_105, PmxR [6] [µg/mL]	MIC E. coli ATCC 25922 (E. coli ATCC 25922) [µg/mL]	MIC K. pneumoniae ATCC BAA-2146, NDM-1 pos [7] [µg/mL]	MIC K. pneumoniae ATCC 13883 (K. pneumoniae ATCC 13883) [µg/mL]	MIC A. baumannii GN_093 PmxR (A. baumannii GN_093 PmxR) [µg/mL]	MIC P. aeruginosa ATCC 27853 (P. aeruginosa ATCC 27853) [µg/mL]	CC50 at 24 h (in vitro [8]) [µM]	CC50 at 24 h (in vitro [9]) [µM]	CC50 at 24 h (in vitro [10]) [µM]	MIC P. aeruginosa GN_043, PmxR [3] [µg/mL]
CCCCCCC[C@@H](O)CC(=O)N[C@H](CCN)C(=O)N[C@H]1CNC(=O)[C@H](CC(C)C)NC(=O)[C@H](CCN)NC(=O)[C@H](CCN)NC(=O)[C@H](CC(C)C)NC(=O)[C@@H](CC(C)C)NC(=O)[C@H](CCN)NC1=O [compound 633, 3(R)OH-nC9CO-D-Dab-cyc[L-Dap-L-Dab-D-Leu-L-Leu-L-Dab-L-Dab-L-Leu]] ({Decanoyl(3R-OH)}-[dDab][Dap][Dab][dL]L[Dab][Dab]L; lactam 2-C)	>32	>32	>32	16 (≈ 16.1 µM)	32 (≈ 32.1 µM)	>32	>32	16 (≈ 16.1 µM)	8 (≈ 8.03 µM)	>32	>32	1 (≈ 1 µM)	> 300	104	> 300	
CCCCCCC[C@@H](O)CC(=O)N[C@H](CCN)C(=O)N[C@H]1CCNC(=O)[C@H](CC(C)C)NC(=O)[C@H](CCN)NC(=O)[C@H](CCN)NC(=O)[C@H](CC(C)C)NC(=O)[C@@H](Cc2ccc(O)cc2)NC(=O)[C@H](CCN)NC1=O [compound 5008, 3(R)OH-nC9CO-D-Dab-cyc[L-Dab-L-Dab-D-Tyr-L-Leu-L-Dab-L-Dab-L-Leu]] ({Decanoyl(3R-OH)}-[dDab][Dab][Dab][dY]L[Dab][Dab]L; lactam 2-C)	32 (≈ 30.2 µM)	16 (≈ 15.1 µM)	32 (≈ 30.2 µM)	2 (≈ 1.89 µM)	8 (≈ 7.54 µM)	16 (≈ 15.1 µM)	16 (≈ 15.1 µM)	8 (≈ 7.54 µM)	16 (≈ 15.1 µM)	16 (≈ 15.1 µM)	32 (≈ 30.2 µM)	1 (≈ 0.943 µM)	> 300	106	> 300	
CC(C)C[C@@H]1NC(=O)[C@H](CCN)NC(=O)[C@H](CCN)NC(=O)[C@H](CC(C)C)NC(=O)[C@@H](Cc2ccccc2)NC(=O)[C@H](CCN)NC(=O)[C@@H](NC(=O)[C@@H](CCN)NC(=O)CC[C@@H](C)[C@H]2CC[C@H]3[C@@H]4[C@H](O)C[C@@H]5C[C@H](O)CC[C@]5(C)[C@H]4C[C@H](O)[C@]23C)CCNC1=O [compound 5016, cholic acid-D-Dab-cyc[L-Dab-L-Dab-D-Phe-L-Leu-L-Dab-L-Dab-L-Leu]] (Cholyl-[dDab][Dab][Dab][dF]L[Dab][Dab]L; lactam 2-C)	32 (≈ 25.3 µM)	8 (≈ 6.33 µM)	16 (≈ 12.7 µM)		4 (≈ 3.16 µM)	16 (≈ 12.7 µM)	4 (≈ 3.16 µM)	8 (≈ 6.33 µM)	8 (≈ 6.33 µM)	4 (≈ 3.16 µM)	8 (≈ 6.33 µM)	4 (≈ 3.16 µM)	48	17	46	4 (≈ 3.16 µM)
CCCCCCC[C@@H](O)CC(=O)N[C@@H](CCN)C(=O)N[C@H]1CCNC(=O)[C@H](CC(C)C)NC(=O)[C@H](CCN)NC(=O)[C@H](CCN)NC(=O)[C@H](C)NC(=O)[C@@H](Cc2ccccc2)NC(=O)[C@H](CCN)NC1=O [compound 5563, 3(R)OH-nC9CO-L-Dab-cyc[L-Dab-L-Dab-D-Phe-L-Ala-L-Dab-L-Dab-L-Leu]] ({Decanoyl(3R-OH)}-[Dab][Dab][Dab][dF]A[Dab][Dab]L; lactam 2-C)	>32	32 (≈ 31.9 µM)	>32	>32	16 (≈ 16 µM)	32 (≈ 31.9 µM)	32 (≈ 31.9 µM)	32 (≈ 31.9 µM)	16 (≈ 16 µM)	>32	>32	2 (≈ 2 µM)	> 300	158	> 300	
CCCCCCCN1CCC(C(=O)N[C@H](CCN)C(=O)N[C@H]2CCNC(=O)[C@H](CC(C)C)NC(=O)[C@H](CCN)NC(=O)[C@H](CCN)NC(=O)[C@H](Cc3ccccc3)NC(=O)[C@@H](CC(C)C)NC(=O)[C@H](CCN)NC2=O)CC1 [compound 6516, 1-heptylpiperidine-4-carboxylic acid-D-Dab-cyc[L-Dab-L-Dab-D-Leu-L-Phe-L-Dab-L-Dab-L-Leu]] (X1-[dDab][Dab][Dab][dL]F[Dab][Dab]L; lactam 2-C)	32 (≈ 29.5 µM)		>32	0.5 (≈ 0.461 µM)	>32		2 (≈ 1.85 µM)	16 (≈ 14.8 µM)	32 (≈ 29.5 µM)	>32		1 (≈ 0.923 µM)	> 300	223	> 300	
